One series has as its system aggregation of platelet. The experiment in a line: Experiment of resisting platelet aggregation (ADP-induced, platelet-rich plasma, absorbance at 600 nm). The class given is cell-based, rabbit. As to conditions: for IC50: Oryctolagus cuniculus, rabbit platelet-rich plasma, ADP final concentration of 4 μmol/L, read-out: IC50 (50% inhibitory concentration) on aggregation of platelet. As for the experimental part:
Experiment of resisting platelet aggregation with the ligustrazine aromatic acid ether derivatives: Anaesthetizing intravenously a rabbit with 3% pentobarbital sodium, separating arteria carotis communis and taking blood by inserting a pipe, using 3.8% sodium citrate solution (dissolving 3.8 g sodium citrate with distilled water, up to 100 mL, filtering, bottling, sterilizing under 121° C. and high pressure for 15 min) as an anticoagulant (1:9), 1000 r/min, centrifuging for 5 min to prepare platelet-rich plasma (PRP), 3000 r/min, centrifuging for 15 min to prepare platelet-poor plasma (PPP). Cultivating the PRP under 37° C. in a silicified cuvette for 5 min, measuring absorbance (A) at 600 nm, adjusting the absorbance of the PRP to 0.6-0.7 with the PPP, adding 1.7 mL adjusted PRP into another silicified cuvette, adding 200 μL of the test drug, measuring the absorbance at 600 nm before adding […], then adding 100 μL of ADP (final concentration of 4 μmol/L), respectively measuring the absorbance when 2 and 5 min after adding the ADP, calculating aggregation rate (AR) by the following formula: AR=(A before adding the ADP−A after adding the ADP)/A before adding the ADP (100%.). At the same time, calculating aggregation inhibition rate (AIR) of the tested drug to platelet: AIR=[1−(aggregation percentage in administrated tube/aggregation percentage in contrast tube)]×100. Calculating 50% inhibitory concentration (IC50) of the tested drug, referring to table 2.

In general, melting point refers to the temperature, or range, at which the solid turns liquid.

Some results are limits rather than exact numbers.

As for `COc1cc(C(=O)O)cc(OC)c1OCc1nc(C)c(C)nc1C` [Example 2, 4-((3,5,6-trimethylpyrazine-2-yl)methoxyl)-3,5-dimethoxybenzoic acid], the melting point was > 218 °C (dec.).
Same read-out and setting: for `COc1cc(C(=O)O)ccc1OCc1nc(C)c(C)nc1C` [Example 5, 4-((3,5,6-trimethylpyrazine-2-yl)methoxyl)-3-methoxybenzoic acid] the value was 183 to 185 °C.
`Cc1nc(C)c(COc2ccc(C(=O)O)cc2)nc1C` [MC1, 4-((3,5,6-trimethylpyrazine-2-yl)methoxyl)benzoic acid] had a melting point of 179 to 181 °C. In the series on aggregation of platelet, the IC50 was 1360 µM. In the series on aggregation of platelet (rabbit PRP, ADP), the “antiplatelet aggregative activity compared with Ozagrel positive drug (in words)” value is given as “stronger than Ozagrel”.
`COc1cc(/C=C/C(=O)O)ccc1OCc1nc(C)c(C)nc1C` [MC2, (E)-3-(4-((3,5,6-Trimethylpyrazin-2-yl)methoxy)-3-methoxyphenyl)acrylic acid] displayed a melting point of 156 to 158 °C. Also, in the series on aggregation of platelet, the IC50 amounted to 280 µM. Moreover, the “antiplatelet aggregative activity compared with Ozagrel positive drug (in words)” value in the series with aggregation of platelet (rabbit PRP, ADP) is recorded as “stronger than Ozagrel”. Also, the “antiplatelet aggregative activity relative to Ozagrel” value in the series with aggregation of platelet (ratio to Ozagrel positive drug, rabbit PRP, ADP) came to 5.7 times.
Molecule `COc1ccc(C(=O)O)cc1OCc1nc(C)c(C)nc1C` [MC5, 3-((3,5,6-trimethylpyrazine-2-yl)methoxyl)-4-methoxybenzoic acid] registered a melting point of 190 to 192 °C. Further, the IC50 in the series on aggregation of platelet amounted to 1000 µM. In addition, the “antiplatelet aggregative activity compared with Ozagrel positive drug (in words)” value in the series on aggregation of platelet (rabbit PRP, ADP) is reported as “stronger than Ozagrel”.
Turning to `O=C(O)/C=C/c1ccc(Cn2ccnc2)cc1` [Ozagrel, reference compound], the IC50 in the series with aggregation of platelet was 1600 µM.

Source of the values: patent US8350033B2, “4-((3, 5, 6-trimethylpyrazine-2-yl) methoxyl) benzoic acid and its derivatives” (priority 2007, dated 2013).
